Here are results for 15 compounds from patent publication US12297194B2, “N2-phenylpyrimidine-2,4-diamine compounds, and preparation methods and methods of use thereof” (BRIDGE BIOTHERAPEUTICS, INC., priority 2021, dated 2025).

Type in all cases: cell-based, murine
Assay [1] deals with Ba/F3 EGFR Del19/T790M/C797S mutants (Homo sapiens, UniProt P00533, T790M/C797S, cells depend on it, form not given). Description: CellTiter-Glo cell viability, Ba/F3 EGFR Del19/T790M/C797S cells. The conditions noted are these: 72 hours, read-out: Ba/F3 EGFR mutant cell (IC50, nM) D/T/C. In a few lines:
(§1)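 IC50s come from CellTiter-Glo ATP luminescence after 72 h of compound exposure (0, 0.3 up to 2000 nM, 10 concentrations). Ba/F3 lines carried wild-type or mutant EGFR and were plated at 2500 cells/well one day before treatment.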
On the technique in general: In ATP-based viability assays light output follows the ATP content of the culture.

Assay [2] has as its target Ba/F3 EGFR Del19/T790M mutants (Homo sapiens, UniProt P00533, T790M, cells depend on it, form not given). Description: CellTiter-Glo cell viability, Ba/F3 EGFR Del19/T790M cells. The conditions noted are these: 72 hours, read-out: Ba/F3 EGFR mutant cell (IC50, nM) D/T. In a few lines: as §1
In assay [3] the target is Ba/F3 EGFR Del19/C797S mutants (Homo sapiens, UniProt P00533, C797S, cells depend on it, form not given). Put plainly: CellTiter-Glo cell viability, Ba/F3 EGFR Del19/C797S cells. The conditions noted are these: 72 hours, read-out: Ba/F3 EGFR mutant cell (IC50, nM) D/C. In short, it runs like this:
as §1

For assay [4], the target named is Ba/F3 EGFR L858R/T790M/C797S mutants (Homo sapiens, UniProt P00533, T790M/C797S/L858R, cells depend on it). Description: CellTiter-Glo cell viability, Ba/F3 EGFR L858R/T790M/C797S cells. The conditions noted are these: 72 hours, read-out: Ba/F3 EGFR mutant cell (IC50, nM) L/T/C. In short, it runs like this:
as §1

Assay [5] concerns the target Ba/F3 EGFR L858R/C797S mutants (Homo sapiens, UniProt P00533, C797S/L858R, cells depend on it). Put plainly: CellTiter-Glo cell viability, Ba/F3 EGFR L858R/C797S cells. The conditions noted are these: 72 hours, read-out: Ba/F3 EGFR mutant cell (IC50, nM) L/C. In short, it runs like this: as §1
For assay [6], the target named is Ba/F3 EGFR Wild-type (Homo sapiens, UniProt P00533). Description: CellTiter-Glo cell viability, Ba/F3 EGFR wild-type cells. The conditions noted are these: 72 hours, read-out: Ba/F3 EGFR mutant cell (IC50, nM) WT. In a few lines:
as §1

Sequence of Ba/F3 EGFR L858R/T790M/C797S mutants (P00533 whole entry T790M/C797S/L858R): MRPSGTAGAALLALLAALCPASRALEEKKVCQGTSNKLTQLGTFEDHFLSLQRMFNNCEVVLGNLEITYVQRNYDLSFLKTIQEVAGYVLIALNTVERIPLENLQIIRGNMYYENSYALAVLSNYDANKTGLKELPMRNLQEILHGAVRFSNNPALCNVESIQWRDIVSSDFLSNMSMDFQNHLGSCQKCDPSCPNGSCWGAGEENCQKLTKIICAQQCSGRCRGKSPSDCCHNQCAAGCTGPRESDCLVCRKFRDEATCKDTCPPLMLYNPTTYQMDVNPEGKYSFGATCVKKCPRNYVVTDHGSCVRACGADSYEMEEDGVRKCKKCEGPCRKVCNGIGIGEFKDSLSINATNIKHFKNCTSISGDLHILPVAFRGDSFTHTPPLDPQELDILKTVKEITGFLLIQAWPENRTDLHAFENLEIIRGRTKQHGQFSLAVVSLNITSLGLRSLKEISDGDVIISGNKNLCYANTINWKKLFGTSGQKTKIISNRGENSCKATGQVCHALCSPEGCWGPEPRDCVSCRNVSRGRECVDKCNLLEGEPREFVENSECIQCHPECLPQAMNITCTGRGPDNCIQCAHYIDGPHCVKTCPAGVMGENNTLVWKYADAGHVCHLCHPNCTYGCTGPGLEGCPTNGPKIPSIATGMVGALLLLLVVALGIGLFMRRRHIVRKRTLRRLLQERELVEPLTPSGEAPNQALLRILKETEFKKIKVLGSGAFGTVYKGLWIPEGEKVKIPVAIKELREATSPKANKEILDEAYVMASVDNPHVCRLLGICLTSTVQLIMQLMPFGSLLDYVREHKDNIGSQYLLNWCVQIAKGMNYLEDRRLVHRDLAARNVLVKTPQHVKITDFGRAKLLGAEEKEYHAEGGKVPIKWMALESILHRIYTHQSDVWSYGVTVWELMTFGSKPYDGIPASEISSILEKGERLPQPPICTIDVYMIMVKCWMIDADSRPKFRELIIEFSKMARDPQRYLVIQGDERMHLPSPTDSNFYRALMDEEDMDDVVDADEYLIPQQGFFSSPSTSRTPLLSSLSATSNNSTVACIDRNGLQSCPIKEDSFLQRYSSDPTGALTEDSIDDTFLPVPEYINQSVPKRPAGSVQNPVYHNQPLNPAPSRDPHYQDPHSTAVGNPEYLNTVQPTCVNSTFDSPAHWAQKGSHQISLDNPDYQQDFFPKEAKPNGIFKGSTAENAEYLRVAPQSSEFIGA
Sequence of Ba/F3 EGFR Del19/C797S mutants (P00533 with tags, fused parts or gaps DEL746-750/C797S, form open): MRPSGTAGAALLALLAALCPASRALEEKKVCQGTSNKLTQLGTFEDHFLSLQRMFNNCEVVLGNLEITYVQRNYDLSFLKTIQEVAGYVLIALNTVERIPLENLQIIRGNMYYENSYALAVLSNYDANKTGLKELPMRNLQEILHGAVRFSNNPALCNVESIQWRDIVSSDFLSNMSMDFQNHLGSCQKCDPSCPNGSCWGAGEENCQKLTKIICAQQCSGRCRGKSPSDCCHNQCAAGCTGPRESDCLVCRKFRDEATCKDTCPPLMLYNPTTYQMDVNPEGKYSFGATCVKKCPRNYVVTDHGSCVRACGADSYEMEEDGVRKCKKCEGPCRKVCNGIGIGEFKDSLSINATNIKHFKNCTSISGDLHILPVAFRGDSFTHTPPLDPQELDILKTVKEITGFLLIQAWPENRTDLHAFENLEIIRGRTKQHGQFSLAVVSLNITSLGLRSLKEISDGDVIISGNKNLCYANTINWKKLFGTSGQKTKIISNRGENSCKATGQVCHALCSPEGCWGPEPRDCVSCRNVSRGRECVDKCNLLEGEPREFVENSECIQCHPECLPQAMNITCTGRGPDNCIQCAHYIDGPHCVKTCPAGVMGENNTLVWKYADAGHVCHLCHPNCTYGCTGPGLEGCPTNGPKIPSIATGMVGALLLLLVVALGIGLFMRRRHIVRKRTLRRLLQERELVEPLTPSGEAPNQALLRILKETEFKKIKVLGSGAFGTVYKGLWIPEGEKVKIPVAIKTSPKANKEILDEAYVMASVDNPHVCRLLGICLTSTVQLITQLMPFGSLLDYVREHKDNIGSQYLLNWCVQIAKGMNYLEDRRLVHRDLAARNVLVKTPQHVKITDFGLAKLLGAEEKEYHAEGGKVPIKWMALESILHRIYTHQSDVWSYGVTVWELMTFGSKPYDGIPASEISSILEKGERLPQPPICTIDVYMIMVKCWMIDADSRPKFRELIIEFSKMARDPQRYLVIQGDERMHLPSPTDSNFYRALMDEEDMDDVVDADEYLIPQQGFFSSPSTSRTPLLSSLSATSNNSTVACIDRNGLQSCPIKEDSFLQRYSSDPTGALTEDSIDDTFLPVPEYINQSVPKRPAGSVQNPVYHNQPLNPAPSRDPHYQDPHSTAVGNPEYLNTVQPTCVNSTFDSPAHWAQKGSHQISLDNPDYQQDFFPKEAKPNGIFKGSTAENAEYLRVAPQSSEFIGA
Sequence of Ba/F3 EGFR Del19/T790M/C797S mutants (P00533 with tags, fused parts or gaps DEL746-750/T790M/C797S, form open): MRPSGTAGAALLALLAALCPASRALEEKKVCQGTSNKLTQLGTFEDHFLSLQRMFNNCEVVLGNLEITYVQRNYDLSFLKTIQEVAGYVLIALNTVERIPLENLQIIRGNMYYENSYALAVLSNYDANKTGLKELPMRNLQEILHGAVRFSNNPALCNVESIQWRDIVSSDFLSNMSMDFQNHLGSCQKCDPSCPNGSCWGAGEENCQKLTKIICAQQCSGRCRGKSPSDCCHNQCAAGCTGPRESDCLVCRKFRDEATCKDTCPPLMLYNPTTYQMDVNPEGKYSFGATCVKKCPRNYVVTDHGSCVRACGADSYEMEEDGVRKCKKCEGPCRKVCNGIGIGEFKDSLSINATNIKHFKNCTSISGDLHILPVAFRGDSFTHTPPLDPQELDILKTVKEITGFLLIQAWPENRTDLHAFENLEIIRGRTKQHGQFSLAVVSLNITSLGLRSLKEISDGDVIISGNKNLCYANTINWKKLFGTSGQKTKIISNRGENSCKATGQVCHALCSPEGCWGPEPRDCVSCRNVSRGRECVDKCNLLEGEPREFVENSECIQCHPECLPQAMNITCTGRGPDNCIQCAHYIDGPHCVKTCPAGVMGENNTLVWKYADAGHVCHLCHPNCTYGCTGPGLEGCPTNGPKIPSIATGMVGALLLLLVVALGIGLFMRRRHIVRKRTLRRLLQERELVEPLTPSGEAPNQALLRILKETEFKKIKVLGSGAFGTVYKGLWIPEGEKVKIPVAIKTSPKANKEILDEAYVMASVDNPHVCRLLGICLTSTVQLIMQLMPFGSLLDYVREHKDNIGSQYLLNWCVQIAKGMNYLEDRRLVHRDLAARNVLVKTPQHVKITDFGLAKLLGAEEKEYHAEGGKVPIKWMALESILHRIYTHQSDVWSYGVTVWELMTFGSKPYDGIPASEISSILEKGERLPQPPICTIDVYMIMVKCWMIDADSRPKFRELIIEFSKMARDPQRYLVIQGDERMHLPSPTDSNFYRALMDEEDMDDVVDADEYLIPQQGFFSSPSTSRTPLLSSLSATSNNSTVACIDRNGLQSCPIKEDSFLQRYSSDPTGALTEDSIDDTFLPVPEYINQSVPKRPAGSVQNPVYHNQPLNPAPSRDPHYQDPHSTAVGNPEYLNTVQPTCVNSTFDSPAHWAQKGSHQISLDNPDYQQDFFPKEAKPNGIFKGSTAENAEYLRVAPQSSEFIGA
Sequence of Ba/F3 EGFR L858R/C797S mutants (P00533 whole entry C797S/L858R): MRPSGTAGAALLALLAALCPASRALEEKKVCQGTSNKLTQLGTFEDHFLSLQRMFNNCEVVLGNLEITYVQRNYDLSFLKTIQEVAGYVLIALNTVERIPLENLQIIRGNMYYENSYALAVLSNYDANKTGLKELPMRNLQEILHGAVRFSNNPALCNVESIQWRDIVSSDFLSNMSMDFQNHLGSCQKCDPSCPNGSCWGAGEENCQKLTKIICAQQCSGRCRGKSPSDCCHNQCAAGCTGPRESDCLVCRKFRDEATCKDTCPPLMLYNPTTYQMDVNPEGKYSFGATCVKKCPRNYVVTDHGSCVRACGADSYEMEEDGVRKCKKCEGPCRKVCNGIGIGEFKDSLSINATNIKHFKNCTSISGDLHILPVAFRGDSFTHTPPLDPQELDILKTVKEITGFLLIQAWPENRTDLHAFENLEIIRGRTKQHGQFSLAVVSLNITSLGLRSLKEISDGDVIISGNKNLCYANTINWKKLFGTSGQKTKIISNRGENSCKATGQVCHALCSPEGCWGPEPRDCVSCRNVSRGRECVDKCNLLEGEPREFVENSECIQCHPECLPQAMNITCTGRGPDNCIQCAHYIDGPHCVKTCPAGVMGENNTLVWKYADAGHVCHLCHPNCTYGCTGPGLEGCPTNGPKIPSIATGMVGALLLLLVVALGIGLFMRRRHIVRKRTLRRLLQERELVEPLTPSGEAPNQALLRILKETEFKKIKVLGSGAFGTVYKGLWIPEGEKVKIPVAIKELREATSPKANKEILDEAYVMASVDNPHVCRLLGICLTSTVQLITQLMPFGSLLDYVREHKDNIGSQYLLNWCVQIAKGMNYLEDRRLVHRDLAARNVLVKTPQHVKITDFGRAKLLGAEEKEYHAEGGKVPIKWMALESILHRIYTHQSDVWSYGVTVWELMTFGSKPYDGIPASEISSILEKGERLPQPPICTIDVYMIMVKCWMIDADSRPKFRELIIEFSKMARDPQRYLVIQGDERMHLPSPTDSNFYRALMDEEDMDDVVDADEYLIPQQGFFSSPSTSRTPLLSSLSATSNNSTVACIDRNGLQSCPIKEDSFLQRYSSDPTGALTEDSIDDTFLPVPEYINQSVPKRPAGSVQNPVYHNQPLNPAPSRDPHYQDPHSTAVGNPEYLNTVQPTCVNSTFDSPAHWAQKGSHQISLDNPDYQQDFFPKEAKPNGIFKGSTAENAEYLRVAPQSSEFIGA

Turning to `CCCc1cc(Nc2ncc(Cl)c(Nc3ccc4c(c3NS(C)(=O)=O)OCCO4)n2)c(OC)cc1N1CCC(N(C)C)CC1` [Example C13, N-(6-((5-chloro-2-((4-(4-(dimethylamino)piperidin-1-yl)-2-methoxy-5-propylphenyl)amino)pyrimidin-4-yl)amino)-2,3-dihydrobenzo[b][1,4]dioxin-5-yl)methanesulfonamide], the GI50 in assay [1] came out at 27 nM; in assay [2], 20 nM; in assay [3] it was 23 nM; in assay [4], 52 nM; in assay [5] it was 61 nM; in assay [6], 769 nM.

`CCc1cc(Nc2ncc(Cl)c(Nc3ccc(OC)cc3NS(C)(=O)=O)n2)c(OC)cc1N1CCC(N2CCOCC2)CC1` [Example C14, N-(2-((5-chloro-2-((5-ethyl-2-methoxy-4-(4-morpholinopiperidin-1-yl)phenyl)amino)pyrimidin-4-yl)amino)-5-methoxyphenyl) methanesulfonamide]: the GI50 in assay [1] was 4 nM; in assay [2], 2 nM; in assay [3] it was 4 nM; in assay [4], 21 nM; in assay [5], 22 nM; in assay [6], 415 nM.

As for `CCc1cc(Nc2ncc(Cl)c(Nc3ccc4c(c3NS(C)(=O)=O)OCCO4)n2)c(OC)cc1N1CCC(N2CCOCC2)CC1` [Example C15, N-(6-((5-chloro-2-((5-ethyl-2-methoxy-4-(4-morpholinopiperidin-1-yl)phenyl)amino)pyrimidin-4-yl)amino)-2,3-dihydrobenzo[b][1,4]dioxin-5-yl)methanesulfonamide], the GI50 in assay [1] came to 14 nM; in assay [2], 8 nM; in assay [3] it was 13 nM; in assay [4], 30 nM; in assay [5], 44 nM; in assay [6], 638 nM.

`CCS(=O)(=O)Nc1c(Nc2nc(Nc3cc(C)c(N4CCC(N5CCN(C)CC5)CC4)cc3OC)ncc2Cl)cccc1OC` [Example C16, N-(2-((5-chloro-2-((2-methoxy-5-methyl-4-(4-(4-methylpiperazin-1-yl)piperidin-1-yl)phenyl)amino)pyrimidin-4-yl)amino)-6-methoxyphenyl)ethanesulfonamide]: the GI50 in assay [1] was found to be 10 nM; in assay [2], 6 nM; in assay [3] it was 9 nM; in assay [4], 34 nM; in assay [5], 51 nM; in assay [6], 486 nM.

On to `CCS(=O)(=O)Nc1cc(OC)ccc1Nc1nc(Nc2cc(C)c(N3CCC(N4CCN(C)CC4)CC3)cc2OC)ncc1Cl` [Example C17, N-(2-((5-chloro-2-((2-methoxy-5-methyl-4-(4-(4-methylpiperazin-1-yl)piperidin-1-yl)phenyl)amino)pyrimidin-4-yl)amino)-5-methoxyphenyl)ethanesulfonamide], for which the GI50 in assay [1] worked out at 14 nM; in assay [2], 7 nM; in assay [3], 9 nM; in assay [4], 40 nM; in assay [5], 52 nM; in assay [6], 655 nM.

Take `CCc1cc(Nc2ncc(Cl)c(Nc3ccc(OC)c(OC)c3NS(C)(=O)=O)n2)c(OC)cc1N1CCC(N2CCOCC2)CC1` [Example C18, N-(6-((5-chloro-2-((5-ethyl-2-methoxy-4-(4-morpholinopiperidin-1-yl)phenyl)amino)pyrimidin-4-yl)amino)-2,3-dimethoxyphenyl)methanesulfonamide]: the GI50 in assay [1] was 54 nM; in assay [2], 39 nM; in assay [3] it was 55 nM; in assay [4], 194 nM; in assay [5], 215 nM; in assay [6] it was 835 nM.

In the case of `CCCc1cc(Nc2ncc(Cl)c(Nc3cccc(OC)c3NS(C)(=O)=O)n2)c(OC)cc1N1CCC(N(C)C)CC1` [Example C19, N-(2-((5-chloro-2-((4-(4-(dimethylamino)piperidin-1-yl)-2-methoxy-5-propylphenyl)amino)pyrimidin-4-yl)amino)-6-methoxyphenyl)methanesulfonamide], the GI50 in assay [1] turned out to be 7 nM; in assay [2], 9 nM; in assay [3], 12 nM; in assay [4], 54 nM; in assay [5], 30 nM; in assay [6], 668 nM.

As to `CCc1cc(Nc2ncc(Cl)c(Nc3cccc(OC)c3NS(C)(=O)=O)n2)c(OC)cc1N1CCC(N2CCOCC2)CC1` [Example C20, N-(2-((5-chloro-2-((5-ethyl-2-methoxy-4-(4-morpholinopiperidin-1-yl)phenyl)amino)pyrimidin-4-yl)amino)-6-methoxyphenyl)methanesulfonamide], the GI50 in assay [1] amounted to 21 nM; in assay [2] it was 21 nM; in assay [3], 22 nM; in assay [4], 148 nM; in assay [5], 87 nM; in assay [6] it was 1160 nM.

Consider `COc1cc(N2CCC(N3CCN(C)CC3)CC2)c(C)cc1Nc1ncc(Br)c(Nc2cccc(OC)c2N(C)S(C)(=O)=O)n1` [Example C21, N-(2-((5-bromo-2-((2-methoxy-5-methyl-4-(4-(4-methylpiperazin-1-yl)piperidin-1-yl)phenyl)amino)pyrimidin-4-yl)amino)-6-methoxyphenyl)-N-methylmethanesulfonamide], for which the GI50 in assay [1] came out at 13 nM; in assay [2], 18 nM; in assay [3] it was 10 nM; in assay [4] it was 49 nM; in assay [5], 61 nM; in assay [6], 660 nM.

For the compound `CCc1cc(Nc2ncc(Br)c(Nc3cccc(OC)c3NS(C)(=O)=O)n2)c(OC)cc1N1CCC(N2CCN(C)CC2)CC1` [Example C22, N-(2-((5-bromo-2-((5-ethyl-2-methoxy-4-(4-(4-methylpiperazin-1-yl)piperidin-1-yl)phenyl)amino)pyrimidin-4-yl)amino)-6-methoxyphenyl)methanesulfonamide], the GI50 turned out to be 2 nM in assay [1]; 4 nM in assay [2]; 5 nM in assay [3]; 25 nM in assay [4]; 36 nM in assay [5]; 738 nM in assay [6].

For the compound `CCCc1cc(Nc2ncc(Cl)c(Nc3cccc(OC)c3NS(C)(=O)=O)n2)c(OC)cc1N1CCC(N2CCOCC2)CC1` [Example C23, N-(2-((5-chloro-2-((2-methoxy-4-(4-morpholinopiperidin-1-yl)-5-propylphenyl)amino)pyrimidin-4-yl)amino)-6-methoxyphenyl)methanesulfonamide], the GI50 stood at 10 nM in assay [1]; 30 nM in assay [2]; 14 nM in assay [3]; 137 nM in assay [4]; 72 nM in assay [5]; 1680 nM in assay [6].

As for `COc1cc(N2CCC(N3CCN(C)CC3)CC2)c(C)cc1Nc1ncc(Cl)c(Nc2cccc(OC)c2NS(C)(=O)=O)n1` [Example C24, N-(2-((5-chloro-2-((2-methoxy-5-methyl-4-(4-(4-methylpiperazin-1-yl)piperidin-1-yl)phenyl)amino)pyrimidin-4-yl)amino)-6-methoxyphenyl)methanesulfonamide], the GI50 was determined as 7 nM in assay [1]; 14 nM in assay [2]; 6 nM in assay [3]; 83 nM in assay [4]; 41 nM in assay [5]; 605 nM in assay [6].

`COc1cc(N2CCC(N3CCCC3)CC2)c(C)cc1Nc1ncc(Br)c(Nc2cccc(OC)c2NS(C)(=O)=O)n1` [Example C25, N-(2-((5-bromo-2-((2-methoxy-5-methyl-4-(4-(pyrrolidin-1-yl)piperidin-1-yl)phenyl)amino)pyrimidin-4-yl)amino)-6-methoxyphenyl)methanesulfonamide]: the GI50 is 6 nM in assay [1]; 6 nM in assay [2]; 18 nM in assay [3]; 44 nM in assay [4]; 55 nM in assay [5]; 707 nM in assay [6].

`COc1ccc(Nc2nc(Nc3cc(C)c(N4CCC(N5CCN(C)CC5)CC4)cc3OC)ncc2Cl)c(NS(C)(=O)=O)c1` [Example C26, N-(2-((5-chloro-2-((2-methoxy-5-methyl-4-(4-(4-methylpiperazin-1-yl)piperidin-1-yl)phenyl)amino)pyrimidin-4-yl)amino)-5-methoxyphenyl)methanesulfonamide]: the GI50 in assay [1] was 5 nM; in assay [2], 8 nM; in assay [3], 7 nM; in assay [4], 54 nM; in assay [5] it was 35 nM; in assay [6] it was 421 nM.

On to `COc1cc(N2CCC(N3CCCC3)CC2)c(C)cc1Nc1ncc(Cl)c(Nc2ccc3c(c2NS(C)(=O)=O)OCCO3)n1` [Example C27, N-(6-((5-chloro-2-((2-methoxy-5-methyl-4-(4-(pyrrolidin-1-yl)piperidin-1-yl)phenyl)amino)pyrimidin-4-yl)amino)-2,3-dihydrobenzo[b][1,4]dioxin-5-yl)methanesulfonamide], for which the GI50 in assay [1] amounted to 15 nM; in assay [2], 16 nM; in assay [3], 10 nM; in assay [4] it was 48 nM; in assay [5], 43 nM; in assay [6], 565 nM.
